From ChEMBL document CHEMBL4118193, “1,2,3,4,6-Penta-O-galloyl-β-d-glucose suppresses colon cancer through induction of tumor suppressor” (Bioorg Med Chem Lett, 2018)
Calls of active or inactive are those of the source. The calls are words filed in the database; no cut-off is given here.

Experiments:
HCT-116 [1] = assay: Induction of apoptosis in human HCT116 cells assessed as caspase-3 protein level at 5 uM after 48 hrs by Western blot method relative to beta-actin; assay type: functional
HT-29 [2] = assay: Cytotoxicity against human HT-29 cells at 1 to 10 uM after 48 hrs by CytoTox-96 non-radioactive assay; assay type: functional, cell-based
HCT-116 [3] = assay: Induction of apoptosis in human HCT116 cells assessed as cyclin E protein level at 2.5 uM after 48 hrs by Western blot method relative to beta-actin; assay type: functional
HCT-116 [4] = assay: Induction of apoptosis in human HCT116 cells assessed as increase in caspase-3/7 activity at 1 to 10 uM measured after 48 hrs by Caspase-Glo 3/7 assay; assay type: functional, cell-based
HT-29 [5] = assay: Induction of apoptosis in human HT-29 cells assessed as CDK2 protein level at 5 uM after 48 hrs by Western blot method relative to beta-actin; assay type: functional
HT-29 [6] = assay: Cytotoxicity against human HT-29 cells assessed as reduction in cell viability by MTT assay; assay type: functional, cell-based
HCT-116 [7] = assay: Cytotoxicity against human HCT116 cells at 10 uM after 48 hrs by CytoTox-96 non-radioactive assay; assay type: functional, cell-based
CCD-18Co = assay: Antiproliferative activity against human CCD-18Co cells at 1 to 10 uM after 48 hrs by CytoTox-96 non-radioactive assay; assay type: cell-based
HT-29 [8] = assay: Induction of apoptosis in human HT-29 cells assessed as increase in caspase-3/7 activity at 1 to 10 uM measured after 48 hrs by Caspase-Glo 3/7 assay; assay type: functional, cell-based
HT-29 [9] = assay: Cell cycle arrest in human HT-29 cells assessed as accumulation at G2/M phase at 10 uM after 48 hrs (reference value: 14.7%); assay type: functional
HCT-116 [10] = assay: Induction of apoptosis in human HCT116 cells assessed as DNA fragmentation at 1 to 10 uM after 48 hrs by ELISA; assay type: functional, cell-based
HCT-116 [11] = assay: Induction of apoptosis in human HCT116 cells assessed as in p53 protein level at 10 uM after 48 hrs by Western blot method relative to beta-actin; assay type: functional
HT-29 [12] = assay: Cell cycle arrest in human HT-29 cells assessed as accumulation at S phase at 5 uM after 48 hrs (reference value: 9.7%); assay type: functional
HT-29 [13] = assay: Induction of apoptosis in human HT-29 cells assessed as in p53 protein level at 2.5 uM after 48 hrs by Western blot method relative to beta-actin; assay type: functional
HCT-116 [14] = assay: Induction of apoptosis in human HCT116 cells assessed as live cells at 1 uM after 48 hrs by Annexin-V and dead cell assay (reference value: 96.75%); assay type: functional
HCT-116 [15] = assay: Cell cycle arrest in human HCT116 cells assessed as accumulation at G2/M phase at 2.5 uM after 48 hrs (reference value: 21.5%); assay type: functional
HT-29 [16] = assay: Induction of apoptosis in human HT-29 cells assessed as Bcl-2 protein level at 10 uM after 48 hrs by Western blot method relative to beta-actin; assay type: functional
HCT-116 [17] = assay: Induction of apoptosis in human HCT116 cells assessed as cleaved caspase-3 protein level at 1 uM after 48 hrs by Western blot method relative to caspase-3; assay type: functional
HCT-116 [18] = assay: Induction of apoptosis in human HCT116 cells assessed as late apoptotic cells at 1 uM after 48 hrs by Annexin-V and dead cell assay (reference value: 1.45%); assay type: functional
HT-29 [19] = assay: Induction of apoptosis in human HT-29 cells assessed as cleaved caspase-3 protein level at 1 uM after 48 hrs by Western blot method relative to caspase-3; assay type: functional
HT-29 [20] = assay: Induction of apoptosis in human HT-29 cells assessed as CDK2 protein level at 1 uM after 48 hrs by Western blot method relative to beta-actin; assay type: functional
HT-29 [21] = assay: Induction of apoptosis in human HT-29 cells assessed as cyclin E protein level at 1 uM after 48 hrs by Western blot method relative to beta-actin; assay type: functional
HCT-116 [22] = assay: Induction of apoptosis in human HCT116 cells assessed as necrotic cells at 2.5 uM after 48 hrs by Annexin-V and dead cell assay (reference value: 0.10%); assay type: functional
HT-29 [23] = assay: Cytotoxicity against human HT-29 cells at 10 uM after 48 hrs by CytoTox-96 non-radioactive assay; assay type: functional, cell-based
HCT-116 [24] = assay: Cell cycle arrest in human HCT116 cells assessed as accumulation at S phase at 5 uM after 48 hrs (reference value: 10.9%); assay type: functional
HCT-116 [25] = assay: Induction of apoptosis in human HCT116 cells assessed as early apoptotic cells at 2.5 uM after 48 hrs by Annexin-V and dead cell assay (reference value: 1.70%); assay type: functional
HT-29 [26] = assay: Cell cycle arrest in human HT-29 cells assessed as accumulation at S phase at 2.5 uM after 48 hrs (reference value: 9.7%); assay type: functional
HT-29 [27] = assay: Cell cycle arrest in human HT-29 cells assessed as accumulation at S phase at 10 uM after 48 hrs (reference value: 9.7%); assay type: functional
HT-29 [28] = assay: Induction of apoptosis in human HT-29 cells assessed as CDK2 protein level at 2.5 uM after 48 hrs by Western blot method relative to beta-actin; assay type: functional
HCT-116 [29] = assay: Induction of apoptosis in human HCT116 cells assessed as live cells at 2.5 uM after 48 hrs by Annexin-V and dead cell assay (reference value: 96.75%); assay type: functional
HCT-116 [30] = assay: Induction of apoptosis in human HCT116 cells assessed as p21 protein level at 1 uM after 48 hrs by Western blot method relative to beta-actin; assay type: functional
HCT-116 [31] = assay: Induction of apoptosis in human HCT116 cells assessed as CDK2 protein level at 2.5 uM after 48 hrs by Western blot method relative to beta-actin; assay type: functional
HT-29 [32] = assay: Induction of apoptosis in human HT-29 cells assessed as p21 protein level at 2.5 uM after 48 hrs by Western blot method relative to beta-actin; assay type: functional

O=C(OC[C@H]1O[C@@H](OC(=O)c2cc(O)c(O)c(O)c2)[C@H](OC(=O)c2cc(O)c(O)c(O)c2)[C@@H](OC(=O)c2cc(O)c(O)c(O)c2)[C@@H]1OC(=O)c1cc(O)c(O)c(O)c1)c1cc(O)c(O)c(O)c1 [PENTAGALLOYL GLUCOSE]
fold change (FC) (HCT-116 [1]): 309.9 | Activity (HT-29 [2]): Active | fold change (FC) (HCT-116 [3]): 1.6 | Activity (HCT-116 [4]): Active | fold change (FC) (HT-29 [5]): 0.4 | IC50 (HT-29 [6]): 4.46 µM | Activity (HCT-116 [7]): Active | Activity (CCD-18Co): Non-Toxic | Activity (HT-29 [8]): Active | Activity (HT-29 [9]): 11.7% | Activity (HCT-116 [10]): Active | fold change (FC) (HCT-116 [11]): 8.1 | Activity (HT-29 [12]): 14.3% | fold change (FC) (HT-29 [13]): 4.4 | Activity (HCT-116 [14]): 98.25% | Activity (HCT-116 [15]): 20.5% | fold change (FC) (HT-29 [16]): 0.3 | fold change (FC) (HCT-116 [17]): 1 | Activity (HCT-116 [18]): 0.65% | fold change (FC) (HT-29 [19]): 3 | fold change (FC) (HT-29 [20]): 0.9 | fold change (FC) (HT-29 [21]): 1.2 | Activity (HCT-116 [22]): 0.1% | Activity (HT-29 [23]): Active | Activity (HCT-116 [24]): 17.8% | Activity (HCT-116 [25]): 1.35% | Activity (HT-29 [26]): 13.4% | Activity (HT-29 [27]): 13.9% | fold change (FC) (HT-29 [28]): 0.9 | Activity (HCT-116 [29]): 97.55% | fold change (FC) (HCT-116 [30]): 1.3 | fold change (FC) (HCT-116 [31]): 0.8 | fold change (FC) (HT-29 [32]): 2.8
